Test results: patent publication US4542137A, “Alkylaminodesoxy-1.4;3.6-dianhydrohexitol nitrates substituted by purine bases and pharmaceutical compositions” (priority 1980, dated 1985)

Test system: mongrel dogs
Assay: circulatory pharmacological effectiveness on narcotised dogs, intravenous
Type: in vivo, dog
[1] = dog i.v. ISDN/9c 1, 1d 0.5 mg/kg, 40 min
[2] = dog i.v. ISDN/9c 1, 1d 0.5 mg/kg, 50 min
[3] = dog i.v. ISDN/9c 1, 1d 0.5 mg/kg, 60 min
[4] = dog i.v. ISDN/9c 1, 1d 0.5 mg/kg, 90 min
[5] = dog i.v. ISDN/9c 1, 1d 0.5 mg/kg, 120 min
[6] = dog i.v. ISDN/9c 1, 1d 0.5 mg/kg, 150 min
[7] = dog i.v. ISDN/9c 1, 1d 0.5 mg/kg, 180 min
[8] = dog i.v., before administration (v)

CN(CCCn1cnc2c1c(=O)n(C)c(=O)n2C)[C@H]1CO[C@H]2[C@@H]1OC[C@@H]2O[N+](=O)[O-] [Example 9c, 5-[N-Methyl-N-(3-theophyllin-7-ylpropyl)-amino]-5-desoxy-1.4;3.6-dianhydro-L-iditol 2-nitrate]
BFFem: blood flow in the A. femoralis referred to 20 kg body weight [1]: 44.2 mL/min
HLL: heart capacity left, referred to 20 kg body weight [1]: 0.60 W
HLR: heart capacity right, referred to 20 kg body weight [1]: 63.2 mW
HZV: heart minute volume, referred to 20 kg body weight [1]: 2.71 L/min
LVEDP: end diastolic pressure in the left ventricle [1]: 5.62 mm.Hg
SV: beat volume, referred to 20 kg body weight [1]: 24.9 mL
WAP: pulmonalis resistance, referred to 20 kg body weight [1]: 0.30 U
WFem: moralis resistance, referred to 20 kg body weight [1]: 0.32 KU
WTP: total peripheral resistance, referred to 20 kg body weight [1]: 5.05 U
dp/dt: rate of pressure increase in the left ventricle [1]: 2203.1 mm.Hg/sec
APdiast: diastolic aorta pressure [2]: 88.2 mm.Hg
APsyst: systolic aorta pressure [2]: 142.5 mm.Hg
BFFem: blood flow in the A. femoralis referred to 20 kg body weight [2]: 26.6 mL/min
HF: heart frequency [2]: 105.5
HLL: heart capacity left, referred to 20 kg body weight [2]: 0.61 W
HLR: heart capacity right, referred to 20 kg body weight [2]: 61.7 mW
HZV: heart minute volume, referred to 20 kg body weight [2]: 2.68 L/min
LVEDP: end diastolic pressure in the left ventricle [2]: 6.19 mm.Hg
SV: beat volume, referred to 20 kg body weight [2]: 25.5 mL
WFem: moralis resistance, referred to 20 kg body weight [2]: 0.31 KU
WTP: total peripheral resistance, referred to 20 kg body weight [2]: 5.24 U
dp/dt: rate of pressure increase in the left ventricle [2]: 2165.6 mm.Hg/sec
APdiast: diastolic aorta pressure [3]: 88.2 mm.Hg
APsyst: systolic aorta pressure [3]: 144.7 mm.Hg
BFFem: blood flow in the A. femoralis referred to 20 kg body weight [3]: 45.8 mL/min
HF: heart frequency [3]: 103.2
HLL: heart capacity left, referred to 20 kg body weight [3]: 0.59 W
HLR: heart capacity right, referred to 20 kg body weight [3]: 59.1 mW
HZV: heart minute volume, referred to 20 kg body weight [3]: 2.59 L/min
SV: beat volume, referred to 20 kg body weight [3]: 25.1 mL
WAP: pulmonalis resistance, referred to 20 kg body weight [3]: 0.27 U
WFem: moralis resistance, referred to 20 kg body weight [3]: 0.32 KU
WTP: total peripheral resistance, referred to 20 kg body weight [3]: 5.48 U
dp/dt: rate of pressure increase in the left ventricle [3]: 2109.4 mm.Hg/sec
APdiast: diastolic aorta pressure [4]: 90.9 mm.Hg
APsyst: systolic aorta pressure [4]: 148.1 mm.Hg
BFFem: blood flow in the A. femoralis referred to 20 kg body weight [4]: 41.7 mL/min
HF: heart frequency [4]: 98.0
HLL: heart capacity left, referred to 20 kg body weight [4]: 0.56 W
HLR: heart capacity right, referred to 20 kg body weight [4]: 59.2 mW
HZV: heart minute volume, referred to 20 kg body weight [4]: 2.42 L/min
SV: beat volume, referred to 20 kg body weight [4]: 24.8 mL
WAP: pulmonalis resistance, referred to 20 kg body weight [4]: 0.33 U
WFem: moralis resistance, referred to 20 kg body weight [4]: 0.36 KU
WTP: total peripheral resistance, referred to 20 kg body weight [4]: 6.00 U
dp/dt: rate of pressure increase in the left ventricle [4]: 1987.5 mm.Hg/sec
APdiast: diastolic aorta pressure [5]: 90.9 mm.Hg
APsyst: systolic aorta pressure [5]: 150.0 mm.Hg
BFFem: blood flow in the A. femoralis referred to 20 kg body weight [5]: 39.9 mL/min
HF: heart frequency [5]: 96.7
HLL: heart capacity left, referred to 20 kg body weight [5]: 0.55 W
HLR: heart capacity right, referred to 20 kg body weight [5]: 60.8 mW
HZV: heart minute volume, referred to 20 kg body weight [5]: 2.39 L/min
LVEDP: end diastolic pressure in the left ventricle [5]: 7.73 mm.Hg
SV: beat volume, referred to 20 kg body weight [5]: 24.7 mL
WAP: pulmonalis resistance, referred to 20 kg body weight [5]: 0.35 U
WFem: moralis resistance, referred to 20 kg body weight [5]: 0.38 KU
WTP: total peripheral resistance, referred to 20 kg body weight [5]: 6.07 U
dp/dt: rate of pressure increase in the left ventricle [5]: 1837.5 mm.Hg/sec
APdiast: diastolic aorta pressure [6]: 88.7 mm.Hg
APsyst: systolic aorta pressure [6]: 148.7 mm.Hg
BFFem: blood flow in the A. femoralis referred to 20 kg body weight [6]: 39.0 mL/min
HF: heart frequency [6]: 98.2
HLL: heart capacity left, referred to 20 kg body weight [6]: 0.54 W
HLR: heart capacity right, referred to 20 kg body weight [6]: 64.4 mW
HZV: heart minute volume, referred to 20 kg body weight [6]: 2.38 L/min
LVEDP: end diastolic pressure in the left ventricle [6]: 7.87 mm.Hg
SV: beat volume, referred to 20 kg body weight [6]: 24.3 mL
WAP: pulmonalis resistance, referred to 20 kg body weight [6]: 0.40 U
WFem: moralis resistance, referred to 20 kg body weight [6]: 0.37 KU
WTP: total peripheral resistance, referred to 20 kg body weight [6]: 5.92 U
dp/dt: rate of pressure increase in the left ventricle [6]: 1809.4 mm.Hg/sec
APdiast: diastolic aorta pressure [7]: 87.2 mm.Hg
APsyst: systolic aorta pressure [7]: 148.1 mm.Hg
BFFem: blood flow in the A. femoralis referred to 20 kg body weight [7]: 42.8 mL/min
HF: heart frequency [7]: 100.0
HLL: heart capacity left, referred to 20 kg body weight [7]: 0.55 W
HLR: heart capacity right, referred to 20 kg body weight [7]: 67.5 mW
HZV: heart minute volume, referred to 20 kg body weight [7]: 2.47 L/min
LVEDP: end diastolic pressure in the left ventricle [7]: 7.87 mm.Hg
SV: beat volume, referred to 20 kg body weight [7]: 24.8 mL
WAP: pulmonalis resistance, referred to 20 kg body weight [7]: 0.41 U
WFem: moralis resistance, referred to 20 kg body weight [7]: 0.33 KU
WTP: total peripheral resistance, referred to 20 kg body weight [7]: 5.61 U
dp/dt: rate of pressure increase in the left ventricle [7]: 1743.7 mm.Hg/sec
APdiast: diastolic aorta pressure [8]: 78.7 mm.Hg
APsyst: systolic aorta pressure [8]: 147.2 mm.Hg
BFFem: blood flow in the A. femoralis referred to 20 kg body weight [8]: 48.0 mL/min
HF: heart frequency [8]: 102.5
HLL: heart capacity left, referred to 20 kg body weight [8]: 0.56 W
HLR: heart capacity right, referred to 20 kg body weight [8]: 63.08 mW
HZV: heart minute volume, referred to 20 kg body weight [8]: 2.62 L/min
PAP: average pressure in the A. pulmonalis [8]: 13.6 mm.Hg
WFem: moralis resistance, referred to 20 kg body weight [8]: 0.29 KU
WTP: total peripheral resistance, referred to 20 kg body weight [8]: 5.15 U
dp/dt: rate of pressure increase in the left ventricle [8]: 1837.5 mm.Hg/sec
BFFem: blood flow in the A. femoralis referred to 20 kg body weight (dog, in vivo): 41.9 mL/min
PRV: pressure in the right atrium (dog, in vivo, iv): 3.0
LVEDP: end diastolic pressure in the left ventricle (iv): 7.60 mm.Hg
SV: beat volume, referred to 20 kg body weight (iv): 25.9 mL
WAP: pulmonalis resistance, referred to 20 kg body weight (iv): 0.29 U
